PubChem BioAssay (NCI)
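Each compound was tested at five concentrations against cells in 96-well plates for 48 hours. TGI marks complete inhibition of growth.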

Legend:
Assay in all cases: NCI tumour cell line growth inhibition, 48 h
M19-MEL melanoma = test system: M19-MEL melanoma
HOP-92 NSCLC = test system: HOP-92 NSCLC
HCT-15 colon = test system: HCT-15 colon
DMS 114 small cell lung = test system: DMS 114 small cell lung
OVCAR-5 ovarian = test system: OVCAR-5 ovarian
HOP-18 NSCLC = test system: HOP-18 NSCLC
HL-60(TB) leukemia = test system: HL-60(TB) leukemia
MALME-3M melanoma = test system: MALME-3M melanoma
ACHN renal = test system: ACHN renal
UACC-62 melanoma = test system: UACC-62 melanoma
COLO 205 colon = test system: COLO 205 colon
DLD-1 colon = test system: DLD-1 colon
SF-295 CNS = test system: SF-295 CNS
HCC-2998 colon = test system: HCC-2998 colon
SK-MEL-5 melanoma = test system: SK-MEL-5 melanoma
OVCAR-4 ovarian = test system: OVCAR-4 ovarian
HT29 colon = test system: HT29 colon
RXF 393 renal = test system: RXF 393 renal
NCI-H23 lung = test system: NCI-H23 lung
MOLT-4 leukemia = test system: MOLT-4 leukemia
UO-31 renal = test system: UO-31 renal
IGROV1 ovarian = test system: IGROV1 ovarian
A549 NSCLC = test system: A549 NSCLC
SNB-19 CNS = test system: SNB-19 CNS
SN12C renal = test system: SN12C renal
LOX IMVI melanoma = test system: LOX IMVI melanoma
NCI-H226 lung = test system: NCI-H226 lung
KM12 colon = test system: KM12 colon
U251 CNS = test system: U251 CNS
EKVX NSCLC = test system: EKVX NSCLC
NCI-H460 lung = test system: NCI-H460 lung
SNB-78 CNS = test system: SNB-78 CNS
786-0 renal = test system: 786-0 renal
SF-539 CNS = test system: SF-539 CNS
SK-MEL-2 melanoma = test system: SK-MEL-2 melanoma
SW-620 colon = test system: SW-620 colon
OVCAR-3 ovarian = test system: OVCAR-3 ovarian
TK-10 renal = test system: TK-10 renal
XF 498 CNS = test system: XF 498 CNS
SK-MEL-28 melanoma = test system: SK-MEL-28 melanoma
HOP-62 NSCLC = test system: HOP-62 NSCLC
SNB-75 CNS = test system: SNB-75 CNS
HCT-116 colon = test system: HCT-116 colon
CCRF-CEM leukemia = test system: CCRF-CEM leukemia
SK-OV-3 ovarian = test system: SK-OV-3 ovarian
OVCAR-8 ovarian = test system: OVCAR-8 ovarian
SF-268 CNS = test system: SF-268 CNS
K-562 leukemia = test system: K-562 leukemia
M14 melanoma = test system: M14 melanoma
UACC-257 melanoma = test system: UACC-257 melanoma
DMS 273 small cell lung = test system: DMS 273 small cell lung
CAKI-1 renal = test system: CAKI-1 renal
NCI-H522 lung = test system: NCI-H522 lung
RPMI-8226 leukemia = test system: RPMI-8226 leukemia
A498 renal = test system: A498 renal
KM20L2 colon = test system: KM20L2 colon

Nc1ccc(N)c2c1C(=O)c1c(N)ccc(N)c1C2=O
TGI (M19-MEL melanoma): > 100 µM
TGI (HOP-92 NSCLC): > 92.3 µM
TGI (HCT-15 colon): > 100 µM
TGI (DMS 114 small cell lung): > 100 µM
TGI (OVCAR-5 ovarian): > 100 µM
TGI (HOP-18 NSCLC): 64.7 µM
TGI (HL-60(TB) leukemia): > 100 µM
TGI (MALME-3M melanoma): > 100 µM
TGI (ACHN renal): > 100 µM
TGI (UACC-62 melanoma): > 100 µM
TGI (COLO 205 colon): > 100 µM
TGI (DLD-1 colon): > 100 µM
TGI (SF-295 CNS): > 100 µM
TGI (HCC-2998 colon): > 100 µM
TGI (SK-MEL-5 melanoma): > 100 µM
TGI (OVCAR-4 ovarian): 97.4 µM
TGI (HT29 colon): > 100 µM
TGI (RXF 393 renal): > 93.5 µM
TGI (NCI-H23 lung): > 100 µM
TGI (MOLT-4 leukemia): > 63.6 µM
TGI (UO-31 renal): > 100 µM
TGI (IGROV1 ovarian): > 100 µM
TGI (A549 NSCLC): > 100 µM
TGI (SNB-19 CNS): > 100 µM
TGI (SN12C renal): > 100 µM
TGI (LOX IMVI melanoma): > 31.6 µM
TGI (NCI-H226 lung): 67.8 µM
TGI (KM12 colon): > 100 µM
TGI (U251 CNS): > 100 µM
TGI (EKVX NSCLC): > 100 µM
TGI (NCI-H460 lung): > 100 µM
TGI (SNB-78 CNS): > 100 µM
TGI (786-0 renal): > 100 µM
TGI (SF-539 CNS): > 88.8 µM
TGI (SK-MEL-2 melanoma): > 100 µM
TGI (SW-620 colon): > 100 µM
TGI (OVCAR-3 ovarian): 81.9 µM
TGI (TK-10 renal): > 100 µM
TGI (XF 498 CNS): > 89.2 µM
TGI (SK-MEL-28 melanoma): > 100 µM
TGI (HOP-62 NSCLC): > 100 µM
TGI (SNB-75 CNS): > 77.7 µM
TGI (HCT-116 colon): > 100 µM
TGI (CCRF-CEM leukemia): > 68.3 µM
TGI (SK-OV-3 ovarian): > 100 µM
TGI (OVCAR-8 ovarian): > 100 µM
TGI (SF-268 CNS): > 100 µM
TGI (K-562 leukemia): > 100 µM
TGI (M14 melanoma): > 100 µM
TGI (UACC-257 melanoma): > 100 µM
TGI (DMS 273 small cell lung): > 100 µM
TGI (CAKI-1 renal): > 100 µM
TGI (NCI-H522 lung): > 89.3 µM
TGI (RPMI-8226 leukemia): > 100 µM
TGI (A498 renal): > 100 µM
TGI (KM20L2 colon): > 100 µM

C/C(=N/N)c1ccc2[nH]c3c(C)cc([N+](=O)[O-])c(C)c3c2c1
TGI (M19-MEL melanoma): 27.1 µM
TGI (HCT-15 colon): 24.7 µM
TGI (DMS 114 small cell lung): 25.8 µM
TGI (HOP-18 NSCLC): 24 µM
TGI (HL-60(TB) leukemia): > 100 µM
TGI (MALME-3M melanoma): 16.4 µM
TGI (ACHN renal): 21.6 µM
TGI (COLO 205 colon): 25.5 µM
TGI (SF-295 CNS): 35.5 µM
TGI (HCC-2998 colon): 31.6 µM
TGI (SK-MEL-5 melanoma): 18.1 µM
TGI (OVCAR-4 ovarian): 38.3 µM
TGI (HT29 colon): 90.1 µM
TGI (MOLT-4 leukemia): 19.8 µM
TGI (UO-31 renal): 22.4 µM
TGI (A549 NSCLC): 40.6 µM
TGI (SNB-19 CNS): 31.8 µM
TGI (SN12C renal): 15.8 µM
TGI (LOX IMVI melanoma): 19.5 µM
TGI (NCI-H226 lung): 29.2 µM
TGI (EKVX NSCLC): 66.1 µM
TGI (NCI-H460 lung): 72.4 µM
TGI (786-0 renal): 22.2 µM
TGI (SF-539 CNS): 29.3 µM
TGI (SK-MEL-2 melanoma): 26.3 µM
TGI (SW-620 colon): 24.7 µM
TGI (OVCAR-3 ovarian): 30.7 µM
TGI (TK-10 renal): 28.4 µM
TGI (XF 498 CNS): 24.7 µM
TGI (SK-MEL-28 melanoma): 24.5 µM
TGI (HOP-62 NSCLC): 20.9 µM
TGI (SNB-75 CNS): > 100 µM
TGI (HCT-116 colon): 17.8 µM
TGI (CCRF-CEM leukemia): 30.1 µM
TGI (OVCAR-8 ovarian): 26.5 µM
TGI (SF-268 CNS): 60.4 µM
TGI (K-562 leukemia): 40.7 µM
TGI (M14 melanoma): 30.4 µM
TGI (UACC-257 melanoma): 48.6 µM
TGI (DMS 273 small cell lung): 17.4 µM
TGI (NCI-H522 lung): 36.7 µM
TGI (RPMI-8226 leukemia): 64 µM
